Assay results taken from ChEMBL document CHEMBL3886319, “Amidopyrazole inhibitors of interleukin receptor-associated kinases” (2015).

Molecular target: T1, Interleukin-1 receptor-associated kinase 4 (Homo sapiens, UniProt Q9NWZ3)
T1 sequence (Q9NWZ3 whole entry): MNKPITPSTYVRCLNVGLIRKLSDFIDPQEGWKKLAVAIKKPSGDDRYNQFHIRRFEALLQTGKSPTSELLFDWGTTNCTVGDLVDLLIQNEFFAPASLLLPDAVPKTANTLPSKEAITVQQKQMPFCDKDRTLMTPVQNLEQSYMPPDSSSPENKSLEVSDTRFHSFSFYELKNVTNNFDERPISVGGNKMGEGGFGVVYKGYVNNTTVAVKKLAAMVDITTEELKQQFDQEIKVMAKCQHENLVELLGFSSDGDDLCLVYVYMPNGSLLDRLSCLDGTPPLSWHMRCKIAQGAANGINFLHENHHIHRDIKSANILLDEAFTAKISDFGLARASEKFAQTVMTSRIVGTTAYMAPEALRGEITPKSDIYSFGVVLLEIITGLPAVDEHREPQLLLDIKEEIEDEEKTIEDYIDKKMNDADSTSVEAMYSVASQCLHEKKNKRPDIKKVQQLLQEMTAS
Test: Kinase Assay: The kinase activity of IRAK-4 is determined by its ability to catalyze the phosphorylation of a fluorescent polypeptide substrate. The extent of phosphorylation is measured using the IMAP technology (Molecular Devices) where the phosphorylated fluorescent substrate binds to the large M(III)-based nanoparticles which reduces the rotational speed of the substrate and thus increases its fluorescent polarization (FP). 20 μl reaction mixture contains 10 mM TriHCl, pH 7.2, 0.5 nM GST tagged IRAK-4 (SignalChem), 100 nM fluorescent peptide substrate (RP7030, Molecular Devices), 100 μM ATP, 1 mM DTT, 1 mM MgCl2, and 0.01% Tween 20. The reaction is initiated by the addition of ATP. After incubation for 30 minutes at 25° C., 60 μl of Progressive IMAP Reagent (Molecular Devices) is added to stop the reaction. Change in RP7030's FP is determined by a FP reader (Analyst HT, LH, BioSystems).

IC50 [µM]	SMILES
< 1	CS(=O)(=O)N1CCC(c2cc(NC(=O)c3cnn4cccnc34)n(-c3ccccc3)n2)CC1
< 1	Cc1ccc(-n2nc(C3CCCN(Cc4cn[nH]c4)C3)cc2NC(=O)c2cnn3cccnc23)cc1 (configuration not stated)
< 1	Cc1ccc(-n2nc(C3CCN(S(C)(=O)=O)C3)cc2NC(=O)c2cnn3cccnc23)cc1 (configuration not stated)
< 1	COc1ccc(CN2CCC(c3cc(NC(=O)c4cnn5cccnc45)n(-c4ccc(C)cc4)n3)CC2)cn1
< 0.1	Cc1ccc(-n2nc(C3CCN(S(=O)(=O)C4CC4)CC3)cc2NC(=O)c2cnn3cccnc23)nc1
< 0.1	CS(=O)(=O)N1CCC(c2cc(NC(=O)c3cnn4cccnc34)n(-c3ccc(CN)cn3)n2)CC1
< 0.1	Cc1ccc(-n2nc(-c3ccnc(CN4CCCCC4)c3)cc2NC(=O)c2cnn3cccnc23)cc1
< 0.1	Cc1ccc(-n2nc(C3CCN(C(C)C(=O)N4CCCC4)CC3)cc2NC(=O)c2cnn3cccnc23)cc1 (configuration not stated)
< 0.1	O=C(Nc1cc(C2CCN(C3CCC3)CC2)nn1-c1ccc(C2CC2)cn1)c1cnn2cccnc12
< 0.1	CCOC(=O)N1CCC(N2CCC(c3cc(NC(=O)c4cnn5cccnc45)n(-c4ccc(C)cc4)n3)CC2)CC1
< 1	Cc1ccc(-n2nc(C3CCN(C(C)C(C)C)CC3)cc2NC(=O)c2cnn3cccnc23)cc1 (configuration not stated)
< 1	Cc1ccc(-n2nc(C3CCN(C)CC3)cc2NC(=O)c2cnn3cccnc23)c(F)c1
< 1	CS(=O)(=O)N1CCC(c2cc(NC(=O)c3cnn4cccnc34)n(CCN)n2)CC1
< 1	COc1ccc(-n2nc(C3CCNCC3)cc2NC(=O)c2cnn3cc(C4CC4)cnc23)cc1
< 0.1	C#Cc1cnc2c(C(=O)Nc3cc(C4CCN(S(C)(=O)=O)CC4)nn3-c3ccc(C)cn3)cnn2c1
< 0.1	Cc1ccc(-n2nc(C3CCN(CC(C)C)CC3)cc2NC(=O)c2cnn3cccnc23)nc1
< 1	CNC(C)c1ccc(-n2nc(C3CCN(S(C)(=O)=O)CC3)cc2NC(=O)c2cnn3cccnc23)nc1 (configuration not stated)
< 0.1	Cc1ccc(-n2nc(C3CCCN(Cc4ccc(S(C)(=O)=O)cc4)C3)cc2NC(=O)c2cnn3cccnc23)cc1 (configuration not stated)
< 0.1	Cc1ccc(-n2nc(C3CCCN(Cc4ccn[nH]4)C3)cc2NC(=O)c2cnn3cccnc23)cc1 (configuration not stated)
< 1	Cc1ccc(-n2nc(C3CCCN(CC4CCOC4)C3)cc2NC(=O)c2cnn3cccnc23)cc1 (configuration not stated)
< 1	COc1ccc(-n2nc(C3CCN(S(C)(=O)=O)CC3)cc2NC(=O)c2cnn3cccnc23)nc1
> 1	Cc1cnc(-n2nc(C3CCNCC3)cc2NC(=O)c2cnn3cccnc23)nc1
< 1	Cc1ccc(-n2nc(C3CCCN(Cc4ncco4)C3)cc2NC(=O)c2cnn3cccnc23)cc1 (configuration not stated)
< 1	COc1ccc(CN2CCCC(c3cc(NC(=O)c4cnn5cccnc45)n(-c4ccc(C)cc4)n3)C2)cn1 (configuration not stated)

IC50 [µM]	SMILES
< 0.1	CS(=O)(=O)N1CCC(c2cc(NC(=O)c3cnn4cccnc34)n(-c3ccc(CO)cn3)n2)CC1
< 1	Cc1ccc(-n2nc(C3CCN(S(C)(=O)=O)CC3)cc2NC(=O)c2cnn3cc(Br)cnc23)cc1
< 1	COc1ncc(CN2CCCC(c3cc(NC(=O)c4cnn5cccnc45)n(-c4ccc(C)cc4)n3)C2)cn1 (configuration not stated)
< 1	Cc1ccc(-n2nc(C3CCCN(Cc4cccnc4)C3)cc2NC(=O)c2cnn3cccnc23)cc1 (configuration not stated)
< 1	Cc1ccc(-n2nc(C3CCCN(Cc4ccncc4)C3)cc2NC(=O)c2cnn3cccnc23)cc1 (configuration not stated)
< 0.1	Cc1ccc(-n2nc(C3CCN(C4CCC(C(F)(F)F)CC4)CC3)cc2NC(=O)c2cnn3cccnc23)cc1 (configuration not stated)
< 1	Cc1ccc(-n2nc(C3CCN(S(C)(=O)=O)CC3)cc2NC(=O)c2cnn3cc(C)cnc23)cc1
< 1	Cc1ccc(-n2nc(C3CCCN(Cc4cnc(N(C)C)s4)C3)cc2NC(=O)c2cnn3cccnc23)cc1 (configuration not stated)
< 0.1	Cc1ccc(-n2nc(C3CCN(S(C)(=O)=O)CC3)cc2NC(=O)c2cnn3cc(Br)cnc23)nc1
< 0.1	Cc1ccc(-n2nc(C3CCCN(Cc4cccc5c4CNC5=O)C3)cc2NC(=O)c2cnn3cccnc23)cc1 (configuration not stated)
< 1	Cc1ccc(-n2nc(C3CCN(C4CNC4)CC3)cc2NC(=O)c2cnn3cccnc23)cc1
< 1	CCn1nccc1CN1CCCC(c2cc(NC(=O)c3cnn4cccnc34)n(-c3ccc(C)cc3)n2)C1 (configuration not stated)
< 1	Cc1ccc(-n2nc(C3CCN(C(C)C(=O)N4CCCCC4)CC3)cc2NC(=O)c2cnn3cccnc23)cc1 (configuration not stated)
< 1	Cc1ccc(-n2nc(-c3cncc(N4CCN(C)CC4)c3)cc2NC(=O)c2cnn3cccnc23)cc1
< 1	Cc1ccc(-n2nc(C3CCN(C(C)c4cccc(F)n4)CC3)cc2NC(=O)c2cnn3cccnc23)cc1 (configuration not stated)
< 1	Cc1ccc(-n2nc(C3CCCN(Cc4cccnc4F)C3)cc2NC(=O)c2cnn3cccnc23)cc1 (configuration not stated)
> 1	Cc1cnc(-n2nc(C3CCN(S(C)(=O)=O)CC3)cc2NC(=O)c2cnn3cccnc23)cn1
< 1	Cc1ccc(-n2nc(C3CCN(C4CCN(C5CC5)CC4)CC3)cc2NC(=O)c2cnn3cccnc23)cc1
< 1	Cc1ccc(-n2nc(C3CCCN(Cc4ccccn4)C3)cc2NC(=O)c2cnn3cccnc23)cc1 (configuration not stated)
< 0.1	Cc1ccc(-n2nc(-c3ccc(S(=O)(=O)N4CCOCC4)cc3)cc2NC(=O)c2cnn3cccnc23)cc1
< 0.1	CC(=O)N1CCC(N2CCC(c3cc(NC(=O)c4cnn5cccnc45)n(-c4ccc(C)cc4)n3)CC2)CC1
< 1	Cc1ccc(-n2nc(C3CCCN(Cc4ccc(F)cn4)C3)cc2NC(=O)c2cnn3cccnc23)cc1 (configuration not stated)
< 1	Cc1ccc(-n2nc(C3CCCN(Cc4ccc5c(c4)C(=O)NC5)C3)cc2NC(=O)c2cnn3cccnc23)cc1 (configuration not stated)
